The values below come from PubChem BioAssay (NCI).

Several values for one entry are separate records, joined by “and”; a condition that tells them apart may be missing. Identical values can stand only once.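 96-well plates; 48 h exposure; 5 concentrations. Endpoints by linear interpolation between flanking doses. Not reached: highest tested concentration assigned. GI50 marks 50% less growth. TGI: total growth inhibition.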

Among the test systems are 786-0 renal; HCT-116 colon; U251 CNS; OVCAR-4 ovarian; LOX IMVI melanoma; MALME-3M melanoma; SF-295 CNS; OVCAR-3 ovarian; COLO 205 colon; NCI-H522 lung.
Common to all, as to test: NCI-60 cell line screen, 48 h

Regarding `O=[N+]([O-])c1ccc(/C=C/c2nc3ccc(Cl)cc3[nH]2)cc1`, the GI50 was 18.7 µM with 786-0 renal; 15.7 µM in the assay with HCT-116 colon; 16.3 µM in the assay on U251 CNS; 74 µM in the assay with OVCAR-4 ovarian; 27.2 µM in the assay with LOX IMVI melanoma; greater than 100 µM in the assay with MALME-3M melanoma. Further, the GI50 is 39.9 µM with SF-295 CNS, 22.4 µM in the assay with OVCAR-3 ovarian, greater than 100 µM in the assay with COLO 205 colon and 14.1 µM in the assay on NCI-H522 lung. Also, the TGI in the assay with 786-0 renal was 43.3 µM; in the assay with HCT-116 colon it was 37.6 µM; in the assay with U251 CNS, 35.3 µM; in the assay on OVCAR-4 ovarian, greater than 100 µM; in the assay with LOX IMVI melanoma, greater than 100 µM; in the assay on MALME-3M melanoma it was greater than 100 µM. Besides, the TGI in the assay on SF-295 CNS is greater than 100 µM; in the assay on OVCAR-3 ovarian it was 65.1 µM; in the assay on COLO 205 colon, greater than 100 µM; in the assay on NCI-H522 lung, greater than 100 µM.

In the case of `COC(=O)C1CSC(c2csc(CCN)n2)=N1` (stereo not given), the TGI with 786-0 renal, in the assay with HCT-116 colon, in the assay with U251 CNS, in the assay with OVCAR-4 ovarian, with LOX IMVI melanoma and with MALME-3M melanoma was greater than 100 µM in each case. Moreover, the TGI with SF-295 CNS, in the assay with OVCAR-3 ovarian, in the assay with COLO 205 colon and with NCI-H522 lung was greater than 100 µM in each case.

As for `O=C(Cn1c(C(=O)c2ccc(Cl)cc2)nc(-c2ccc(Cl)cc2)c1-c1ccc(Cl)cc1)c1ccccc1`, the GI50 in the assay on 786-0 renal, in the assay on HCT-116 colon, in the assay on U251 CNS, with OVCAR-4 ovarian, in the assay on LOX IMVI melanoma and with MALME-3M melanoma was greater than 100 µM in each case. The GI50 in the assay with SF-295 CNS, in the assay on OVCAR-3 ovarian, in the assay on COLO 205 colon and in the assay on NCI-H522 lung was greater than 100 µM throughout. In addition, the TGI with 786-0 renal, with HCT-116 colon, in the assay with U251 CNS, with OVCAR-4 ovarian, in the assay on LOX IMVI melanoma and in the assay with MALME-3M melanoma was greater than 100 µM each time. In addition, the TGI with SF-295 CNS, with OVCAR-3 ovarian, in the assay with COLO 205 colon and with NCI-H522 lung was greater than 100 µM each time.

Regarding `N#Cc1c(NCc2ccccc2)nc(NCc2ccccc2)c(C#N)c1-c1ccc(Cl)cc1`, the GI50 in the assay with 786-0 renal is > 50 µM and 41.5 µM; in the assay with HCT-116 colon, > 50 µM and 24.6 µM; in the assay with U251 CNS it was > 50 µM and 19.2 µM; in the assay on OVCAR-4 ovarian, > 50 µM and 23.9 µM; in the assay on LOX IMVI melanoma, > 50 µM and 29.7 µM; in the assay on MALME-3M melanoma, greater than 100 µM. For the same compound, the GI50 was > 50 µM and 36 µM with SF-295 CNS; > 50 µM and 34.4 µM in the assay with OVCAR-3 ovarian; > 50 µM and 76 µM in the assay with COLO 205 colon; 31.7 µM in the assay with NCI-H522 lung. Also, the TGI with 786-0 renal was greater than 100 µM; in the assay with HCT-116 colon it was greater than 100 µM; in the assay on U251 CNS, > 50 µM and 40.8 µM; in the assay on OVCAR-4 ovarian, greater than 100 µM; in the assay on LOX IMVI melanoma, greater than 100 µM; with MALME-3M melanoma, greater than 100 µM. Further, the TGI in the assay on SF-295 CNS, in the assay with OVCAR-3 ovarian, in the assay with COLO 205 colon and in the assay on NCI-H522 lung was greater than 100 µM throughout.

`CCN1CCC(CC(=O)Nc2n[nH]c3nnc(-c4cccc(F)c4F)cc23)CC1`: the GI50 in the assay with 786-0 renal is greater than 25 µM; in the assay on HCT-116 colon, 24.9 µM; in the assay on U251 CNS it was 21.2 µM; with OVCAR-4 ovarian, greater than 25 µM; in the assay on LOX IMVI melanoma, greater than 25 µM; with MALME-3M melanoma it was greater than 25 µM. Further, the GI50 in the assay on SF-295 CNS is 18 µM; with OVCAR-3 ovarian it was 3.65 µM; with COLO 205 colon it was 22.3 µM; in the assay on NCI-H522 lung, greater than 25 µM. Moreover, the TGI in the assay on 786-0 renal, in the assay with HCT-116 colon, with U251 CNS, in the assay on OVCAR-4 ovarian, with LOX IMVI melanoma and in the assay with MALME-3M melanoma was greater than 25 µM throughout. Further, the TGI in the assay on SF-295 CNS, in the assay with OVCAR-3 ovarian, in the assay with COLO 205 colon and in the assay with NCI-H522 lung was greater than 25 µM each time.

For the compound `N#CC(C#N)=NNc1ccc2cn[nH]c2c1`, the TGI was greater than 100 µM with 786-0 renal; 44.7 µM with HCT-116 colon; greater than 100 µM in the assay on U251 CNS; greater than 100 µM in the assay with OVCAR-4 ovarian; greater than 100 µM in the assay on LOX IMVI melanoma; 69.5 µM in the assay with MALME-3M melanoma. The TGI was greater than 100 µM in the assay on SF-295 CNS, 76.1 µM in the assay on OVCAR-3 ovarian, greater than 100 µM with COLO 205 colon and 34.8 µM in the assay with NCI-H522 lung.

Turning to `Cn1cc(C2=C(c3c4n(c5ccccc35)CCNC4)C(=O)NC2=O)c2ccccc21`, the GI50 is 14.8 µM in the assay with 786-0 renal; 9.68 µM in the assay on HCT-116 colon; 9.23 µM in the assay with U251 CNS; greater than 9.74 µM in the assay with OVCAR-4 ovarian; 11.3 µM in the assay on LOX IMVI melanoma; greater than 11.5 µM in the assay with MALME-3M melanoma. Also, the GI50 in the assay on SF-295 CNS is 5.69 µM; with OVCAR-3 ovarian it was 5.42 µM; in the assay with COLO 205 colon it was 6.66 µM; with NCI-H522 lung it was 4.65 µM. Further, the TGI was greater than 25 µM in the assay with 786-0 renal; greater than 25 µM with HCT-116 colon; greater than 25 µM with U251 CNS; greater than 25 µM with OVCAR-4 ovarian; greater than 25 µM with LOX IMVI melanoma; greater than 24.1 µM with MALME-3M melanoma. The TGI was greater than 25 µM in the assay on SF-295 CNS, greater than 21.7 µM in the assay with OVCAR-3 ovarian, greater than 21.8 µM in the assay on COLO 205 colon and greater than 19.1 µM in the assay with NCI-H522 lung.
